Test results: patent publication US12729377B2, “RNAi agents and compositions for inhibiting expression of angiopoietin-like 3 (ANGPTL3), and methods of use” (Arrowhead Pharmaceuticals, Inc., priority 2017, dated 2026)
In the oligonucleotide strings, read from the 5' end, every base follows the letter of its sugar. An asterisk marks phosphorothioate; unmarked linkages are phosphodiester. Other units and linkages are bracketed, terminal groups are in braces. A string of capitals states the bases alone. {NAG37} = tridentate N-acetyl-galactosamine targeting ligand, structure (NAG37)s; [invAb] = inverted abasic unit; m = 2'-O-methyl; f = 2'-fluoro

Tests used:
ANGPTL3 mRNA = assay: Example 11: liver ANGPTL3 mRNA by RT-qPCR in mice; format: in vivo, C57bl/6 mice
Procedure: To assess the dose response of ANGPTL3 RNAi agent AD05488, six- to eight-week-old female C57bl/6 mice were used. Pre-dose serum samples were taken at day −1 after a four hour fast. At day 1, each mouse was given a single subcutaneous administration of 200 μl containing the respective mg/kg dose of an ANGPTL3 RNAi agent in D5W (dextrose in 5% water), or control (D5W) with no RNAi agent, according to the dosing groups recited in Table 53:
Additionally, ANGPTL3 mRNA levels were also assessed. All of the mice from each respective group were sacrificed on day 29 after serum collection, livers were harvested, and approximately 100 mg liver samples were collected and snap-frozen in liquid nitrogen for RNA isolation.

ANGPTL3 protein = assay: Example 14: RNAi agent and statin, serum ANGPTL3 protein by ELISA in LDLR knockout mice; format: in vivo, LDLR KO mice
From the text: To evaluate the effect of co-administration of RNAi agents and statins in a disease model, LDLR KO mice were commercially obtained (The Jackson Laboratory). For three weeks prior to the onset of the study, forty-one (41) male 7 to 8 week old LDLR KO mice were placed on a high fat (“western”) diet (Teklad Custom Diets TD.88137), and remained on that diet throughout the duration of the study. Pre-dose serum samples were taken on study Day 1 after a four hour fast. The dosing regimen for the study is recited in the following Table 72:
• Mice were treated at 40 mg/kg for the first 11 days, then switched to 20 mg/kg thereafter.
The vehicle used for the oral gavage in the study was a 1:1 mixture of Ora-Plus®: Ora-Sweet® solution, which were acquired commercially. For the preparation of the atorvastatin oral gavage administrations, the respective desired dose of atorvastatin was first dissolved in sterile water (0.3 mL water per 1 mL of desired formulation) and vortexed until smooth, followed by the addition of a mixture of 1:1 Ora-Plus®: Ora-Sweet® solution (0.7 mL vehicle per 1 mL of desired formulation) and vortexed. On day 1 and for each day thereafter an oral gavage dose was administered for each of the Groups except for Group 2. On Day 23, Groups 1, 2, 3, and 4 received a single subcutaneous administration of 2.5 mg/kg dose ([…] solution) of an ANGPTL3 RNAi agent in D5W (dextrose in 5% water), or vehicle control (D5W) with no RNAi agent.
The RNAi agent tested (AD05488) included a modified sequence and an N-acetyl-galactosamine-containing targeting ligand conjugated to the 5′ terminal end of the sense strand. (See Tables 3, 4, and 5 for modified sequences and targeting ligand structures). The injections were performed between the skin and muscle (i.e. subcutaneous injections) into the loose skin over the neck and shoulder area. Serum was collected on days 8, 15, 22 (pre-RNAi agent injection), 29, 36, 43, and 50. LDLR KO mice were fasted for four hours prior to each collection.
ANGPTL3 protein levels in serum were measured by ELISA assay (R&D Systems), according to the manufacturer's recommendations. Among other biomarkers, triglycerides, total cholesterol, and low-density lipoprotein (LDL) in serum were measured on a Cobas® Integra 400 (Roche Diagnostics), according to the manufacturer's recommendations.
The ANGPTL3 protein levels, triglyceride levels, total cholesterol levels, HDL levels, and LDL levels for each animal were normalized. For normalization, respective levels of ANGPTL3 protein, TG, total cholesterol, or LDL for each animal at a time point was divided by the pre-treatment level of expression in that animal (in this case pre-dose levels on Day 1) to determine the ratio of expression “normalized to pre-treatment.” Data from the study set forth in this Example are shown in the following Tables 73-76: […]

AD05488: RNAi agent duplex: antisense AM07235-AS, sense AM07234-SS (antisense mU*fA*mC*fUmGfAmUfCmAfAmAfUmAfUmGfUmUfGmAfG*mC; sense {NAG37}*[invAb]*mGmCmUmCmAmAmCmAfUfAfUmUmUmGmAmUmCmAmGmUmA*[invAb])
Avg Relative ANGPTL3 mRNA, Normalized to Control (ANGPTL3 mRNA; 0.05 mg/kg single sc day 1, Day 29): 0.798 | Avg Relative ANGPTL3 mRNA, Normalized to Control (ANGPTL3 mRNA; 0.1 mg/kg single sc day 1, Day 29): 0.563 | Avg Relative ANGPTL3 mRNA, Normalized to Control (ANGPTL3 mRNA; 0.5 mg/kg single sc day 1, Day 29): 0.277 | Avg Relative ANGPTL3 mRNA, Normalized to Control (ANGPTL3 mRNA; 1.0 mg/kg single sc day 1, Day 29): 0.123 | Avg Relative ANGPTL3 mRNA, Normalized to Control (ANGPTL3 mRNA; 2.5 mg/kg single sc day 1, Day 29): 0.036 | Avg Relative ANGPTL3 mRNA, Normalized to Control (ANGPTL3 mRNA; 5.0 mg/kg single sc day 1, Day 29): 0.038 | reduction in ANGPTL3 mRNA (ANGPTL3 mRNA; day 29, single subcutaneous dose, C57bl/6 mice): reduction | Avg ANGPTL3 normalized to pre-treatment (ANGPTL3 protein; Group 2: no gavage, 2.5 mg/kg AD05488 SC on day 23, Day 8 (pre-RNAi agent injection)): 1.419 | Avg ANGPTL3 normalized to pre-treatment (ANGPTL3 protein; Group 2: no gavage, 2.5 mg/kg AD05488 SC on day 23, Day 15 (pre-RNAi agent injection)): 1.584 | Avg ANGPTL3 normalized to pre-treatment (ANGPTL3 protein; Group 2: no gavage, 2.5 mg/kg AD05488 SC on day 23, Day 22 (pre-RNAi agent injection)): 1.658 | Avg ANGPTL3 normalized to pre-treatment (ANGPTL3 protein; Group 2: no gavage, 2.5 mg/kg AD05488 SC on day 23, Day 29): 0.023 | Avg ANGPTL3 normalized to pre-treatment (ANGPTL3 protein; Group 2: no gavage, 2.5 mg/kg AD05488 SC on day 23, Day 36): 0.012 | Avg ANGPTL3 normalized to pre-treatment (ANGPTL3 protein; Group 2: no gavage, 2.5 mg/kg AD05488 SC on day 23, Day 43): 0.020 | Avg ANGPTL3 normalized to pre-treatment (ANGPTL3 protein; Group 2: no gavage, 2.5 mg/kg AD05488 SC on day 23, Day 50): 0.026 | Avg ANGPTL3 normalized to pre-treatment (ANGPTL3 protein; Group 3: 10 mg/kg daily oral gavage atorvastatin, 2.5 mg/kg AD05488 on day 23, Day 8 (pre-RNAi agent injection)): 1.597 | Avg ANGPTL3 normalized to pre-treatment (ANGPTL3 protein; Group 3: 10 mg/kg daily oral gavage atorvastatin, 2.5 mg/kg AD05488 on day 23, Day 15 (pre-RNAi agent injection)): 1.765 | Avg ANGPTL3 normalized to pre-treatment (ANGPTL3 protein; Group 3: 10 mg/kg daily oral gavage atorvastatin, 2.5 mg/kg AD05488 on day 23, Day 22 (pre-RNAi agent injection)): 1.681 | Avg ANGPTL3 normalized to pre-treatment (ANGPTL3 protein; Group 3: 10 mg/kg daily oral gavage atorvastatin, 2.5 mg/kg AD05488 on day 23, Day 29): 0.015 | Avg ANGPTL3 normalized to pre-treatment (ANGPTL3 protein; Group 3: 10 mg/kg daily oral gavage atorvastatin, 2.5 mg/kg AD05488 on day 23, Day 36): 0.005 | Avg ANGPTL3 normalized to pre-treatment (ANGPTL3 protein; Group 3: 10 mg/kg daily oral gavage atorvastatin, 2.5 mg/kg AD05488 on day 23, Day 43): 0.007 | Avg ANGPTL3 normalized to pre-treatment (ANGPTL3 protein; Group 3: 10 mg/kg daily oral gavage atorvastatin, 2.5 mg/kg AD05488 on day 23, Day 50): 0.010 | Avg ANGPTL3 normalized to pre-treatment (ANGPTL3 protein; Group 4: 20 mg/kg* daily oral gavage atorvastatin (40 mg/kg first 11 days), 2.5 mg/kg AD05488 on day 23, Day 8 (pre-RNAi agent injection)): 1.683 | Avg ANGPTL3 normalized to pre-treatment (ANGPTL3 protein; Group 4: 20 mg/kg* daily oral gavage atorvastatin (40 mg/kg first 11 days), 2.5 mg/kg AD05488 on day 23, Day 15 (pre-RNAi agent injection)): 1.999 | Avg ANGPTL3 normalized to pre-treatment (ANGPTL3 protein; Group 4: 20 mg/kg* daily oral gavage atorvastatin (40 mg/kg first 11 days), 2.5 mg/kg AD05488 on day 23, Day 22 (pre-RNAi agent injection)): 1.675 | Avg ANGPTL3 normalized to pre-treatment (ANGPTL3 protein; Group 4: 20 mg/kg* daily oral gavage atorvastatin (40 mg/kg first 11 days), 2.5 mg/kg AD05488 on day 23, Day 29): 0.022 | Avg ANGPTL3 normalized to pre-treatment (ANGPTL3 protein; Group 4: 20 mg/kg* daily oral gavage atorvastatin (40 mg/kg first 11 days), 2.5 mg/kg AD05488 on day 23, Day 36): 0.004 | Avg ANGPTL3 normalized to pre-treatment (ANGPTL3 protein; Group 4: 20 mg/kg* daily oral gavage atorvastatin (40 mg/kg first 11 days), 2.5 mg/kg AD05488 on day 23, Day 43): 0.005 | Avg ANGPTL3 normalized to pre-treatment (ANGPTL3 protein; Group 4: 20 mg/kg* daily oral gavage atorvastatin (40 mg/kg first 11 days), 2.5 mg/kg AD05488 on day 23, Day 50): 0.010 | reduction in ANGPTL3 protein levels (ANGPTL3 protein; single 2.5 mg/kg subcutaneous on Day 23, LDLR KO mice on high fat diet): clear reduction
